The IC50 is the midpoint of a concentration-inhibition curve. Read a high IC50 as lower potency.

This note sets out measurements from ChEMBL document CHEMBL4814018, “Rationally designed TNF-α inhibitors: Identification of promising cytotoxic agents” (Bioorg Med Chem Lett, 2021).

For assay [1], the system named is BV-2. The assay can be described thus: Cytotoxicity against mouse BV2 cells incubated for 48 hrs by MTT assay. The assay is classed as cell-based. As to conditions: BV-2, 48 h.
For assay [2], the system named is BV-2. The experiment in a line: Antiinflammatory activity against mouse BV2 cells assessed as decrease in LPS-induced NO production at 1 to 5 uM pretreated with compound followed by LPS stimulation incubated for 4 to 48 hrs by enzyme immunoassay. The assay is classed as functional, cell-based. To be noted: dose 1-5 µM, time 4-48 hrs.
In assay [3] the test system is BV-2. The assay can be described thus: Antiinflammatory activity against mouse BV2 cells assessed as inhibition of LPS-induced TNFalpha production at 1 uM by enzyme immunoassay. It is filed as functional.
Assay [4] deals with BV-2. The experiment in a line: Antiinflammatory activity against mouse BV2 cells assessed as reduction in LPS-induced IL6 production at 1 uM by enzyme immunoassay. It is filed as functional, cell-based.
Assay [5] relates to SW-620. The experiment in a line: Growth inhibition of human SW-620 cells at 10 uM incubated for 48 hrs by sulforhodamine B assay relative to control. The assay is classed as functional. As to conditions: read-out: GI.
Assay [6] concerns CAKI-1. The assay can be described thus: Growth inhibition of human CAKI-1 cells at 10 uM incubated for 48 hrs by sulforhodamine B assay relative to control. It is filed as functional. As to conditions: read-out: GI. Background: Sulforhodamine B stains cellular protein and so reports cell mass.
Assay [7] deals with MDA-MB-231. The experiment in a line: Growth inhibition of human MDA-MB-231 cells at 10 uM incubated for 48 hrs by sulforhodamine B assay relative to control. The assay is classed as functional. To be noted: read-out: GI.
Assay [8] deals with K562. The experiment in a line: Growth inhibition of human K562 cells at 10 uM incubated for 48 hrs by sulforhodamine B assay relative to control. It is filed as functional. As to conditions: read-out: GI.
Assay [9] relates to SR. The assay can be described thus: Growth inhibition of human SR cells at 10 uM incubated for 48 hrs by sulforhodamine B assay relative to control. The assay is classed as functional. To be noted: read-out: GI.
For assay [10], the system named is OVCAR-3. The assay can be described thus: Growth inhibition of human OVCAR-3 cells at 10 uM incubated for 48 hrs by sulforhodamine B assay relative to control. It is filed as functional. To be noted: read-out: GI.
For assay [11], the system named is MCF7. The experiment in a line: Growth inhibition of human MCF7 cells at 10 uM incubated for 48 hrs by sulforhodamine B assay relative to control. The assay is classed as functional. To be noted: read-out: GI.
The subject of assay [12] is RPMI-8226. The assay can be described thus: Growth inhibition of human RPMI8226 cells at 10 uM incubated for 48 hrs by sulforhodamine B assay relative to control. It is filed as functional. To be noted: read-out: GI.
Assay [13] relates to HCT-116. The assay can be described thus: Growth inhibition of human HCT-116 cells at 10 uM incubated for 48 hrs by sulforhodamine B assay relative to control. To be noted: read-out: GI. The assay is classed as functional.

Active and inactive are the calls of the source. The rule behind the calls is not given here.

`C#CCn1cc(C2C(Cl)C(=O)N2c2ccc(N3CCOCC3=O)cc2)c2ccccc21` (stereo not given): in assay [1], the half-maximal inhibitory concentration (IC50) is > 10 µM. The outcome in assay [2] was Active.
As for `O=C1COCCN1c1ccc(N2C(=O)C(Cl)C2c2cn(Cc3ccc4ccccc4c3)c3ccccc23)cc1` (stereo not given), the outcome in assay [3] and in assay [4] was Active. The IC50 in [1] is > 10 µM.
In the case of `C=CCn1cc(C2C(Cl)C(=O)N2c2ccc(N3CCOCC3=O)cc2)c2ccccc21` (stereo not given), the IC50 in [1] was > 10 µM.
`O=C1COCCN1c1ccc(N2C(=O)C(Cl)C2c2cn(Cc3ccc(F)cc3)c3ccccc23)cc1` (stereo not given): the IC50 in assay [1] is > 10 µM.
Turning to `Cc1ccc(S(=O)(=O)n2cc(C3C(Cl)C(=O)N3c3ccc(N4CCOCC4=O)cc3)c3ccccc32)cc1` (stereo not given), the inhibition of growth at 10 µM stood at 74% in assay [5]; 75% in assay [6]; 83% in assay [7]; 77% in assay [8]; 75% in assay [9]; 70% in [10]. The inhibition of growth at 10 µM in assay [11] was 80%; in assay [12], 78%; in [13], 83%. In addition, the outcome in assay [3], in assay [4] and in [2] was Active. For the same compound, the IC50 in [1] is > 10 µM.
